Experimental data published in PMC9393165 (Scientific Reports, 2022).
Like-named read-outs stand apart in the source and are kept apart here. Marks after values point to notes of the source that are not given here.

Legend:
[1] = Tacrolimus whole blood concentration, trough and 12-h AUC after kidney transplantation (chemiluminescent microparticle immunoassay); type: in vivo, human; settings: for C0 / AUC: human, whole blood, oral
Protocol: This prospective, randomized, double-blind, placebo-controlled study was carried out in four parallel groups of KTRs. […] The randomization schedule was concealed in sequentially numbered, sealed, opaque envelopes, and kept in a locked cabinet in the central pharmacy of Siriraj Hospital. Envelopes were opened sequentially only after enrollment of each participant. The diltiazem and placebo containers, which were issued with a medication number and assigned to consecutive patients in a sequential order, were tamper-proof, equal in weight, and similar in appearance. A pharmacist not involved in the care of the study patients did the randomization, distributed the study agents, and held the trial codes, which were disclosed after the study. Physicians, nurses, other care providers, and the study patients were unaware of the group allocations.
All participants received oral, immediate-release tacrolimus (Prograf®; Astellas, Kerry, Ireland). According to Siriraj Hospital protocol, the initial dose (0.05 mg/kg every 12 h) of tacrolimus was started 2 days before KT (day − 2) and subsequently adjusted after KT based on efficacy and toxicity and to maintain morning trough concentrations of 7 to 10 ng/mL in standard risk patients and 10 to 12 ng/mL in high-risk patients during the first week after transplantation. Participants also received either mycophenolate mofetil (Cellcept®; F Hoffmann-La Roche Ltd, Basel, Switzerland or Immucept®; Intas Pharmaceuticals Ltd., Gujarat, India) or mycophenolate sodium (Myfortic®; Novartis Pharma Stein, Switzerland for Novartis AG, Basel, Switzerland) at the dosage equivalent to 2 g/day of mycophenolate mofetil. A tapered corticosteroid regimen was administered consisting of an intravenous bolus of 500 mg of methylprednisolone (Solu-medrol®; Novartis Pharma Stein, Switzerland for Novartis AG, Basel, Switzerland) on day 0, 250 mg on day 1, 125 mg on day 2 followed by 40 mg/day of prednisolone on day 4 after KT. The subsequent prednisolone doses were gradually tapered thereafter. Induction therapy with basiliximab (Simulect®; Novartis Pharma AG, Basel, Switzerland) was allowed.
All patients received a fixed dose of omeprazole 40 mg/day.
[…] Samples were collected in EDTA tubes and stored at 4 degrees Celsius until analysis. Whole blood tacrolimus concentrations were determined within the same day of blood collection by using a chemiluminescent microparticle immunoassay method with […] system® i2000 (Abbott, Abbott Diagnostic, USA). The method was linear in the concentration range up to 30 ng/mL, the limits of quantification were 0.8 ng/mL, and the coefficient of variation of within run precision and between run precision were less than 10%. Mean recovery was 100 ± 10% according to the manufacturer’s information.
(§1) For calculation of AUC/D and C0/D, values of AUC and C0 were dose-adjusted by dividing the observed values by the dose recorded on the day of blood collection. Early-morning blood pressures were measured on the same day of blood collection for pharmacokinetic analysis by a ward nurse as part of a routine examination, during rest in a seated position with a calibrated and well-maintained automatic sphygmomanometer. Delayed graft function (DGF) was defined as failure of the kidney graft to function immediately, with the need for dialysis in the first 7 days post-KT. Episode of biopsy-proven acute rejection (BPAR) during 3 months post-KT was diagnosed based on histologic findings in indication kidney graft biopsy according to Banff 2015 criteria.

[2] = Clinical outcomes after kidney transplantation (hypotension, DGF, BPAR, post-transplant diabetes, tremor); type: in vivo, human
Protocol: as §1

[3] = day 1 post-transplantation, CYP3A5 expressers, diltiazem 30 mg every 12 h (n = 11), median (IQR)
[4] = day 1 post-transplantation, CYP3A5 expressers, placebo (n = 12), median (IQR)
[5] = day 1 post-transplantation, CYP3A5 non-expressers, diltiazem 30 mg every 12 h (n = 9), median (IQR)
[6] = day 1 post-transplantation, CYP3A5 non-expressers, placebo (n = 8), median (IQR)
[7] = day 3 post-transplantation, CYP3A5 expressers, diltiazem 30 mg every 12 h (n = 11), median (IQR)
[8] = day 3 post-transplantation, CYP3A5 expressers, placebo (n = 12), median (IQR)
[9] = day 3 post-transplantation, CYP3A5 non-expressers, diltiazem 30 mg every 12 h (n = 9), median (IQR)
[10] = day 3 post-transplantation, CYP3A5 non-expressers, placebo (n = 8), median (IQR)
[11] = day 7, all 40 KTRs, median (IQR)
[12] = day 7 post-transplantation, CYP3A5 expressers, diltiazem 30 mg every 12 h (n = 11), median (IQR)
[13] = day 7 post-transplantation, CYP3A5 expressers, placebo (n = 12), median (IQR)
[14] = day 7 post-transplantation, CYP3A5 non-expressers, diltiazem 30 mg every 12 h (n = 9), median (IQR)
[15] = day 7 post-transplantation, CYP3A5 non-expressers, placebo (n = 8), median (IQR)

With `C=CC[C@@H]1/C=C(\C)C[C@H](C)C[C@H](OC)[C@H]2O[C@@](O)(C(=O)C(=O)N3CCCC[C@H]3C(=O)O[C@H](/C(C)=C/[C@@H]3CC[C@@H](O)[C@H](OC)C3)[C@H](C)[C@@H](O)CC1=O)[C@H](C)C[C@@H]2OC` [Tacrolimus] the C0/D [1, 3] was 3.3 (2.6, 4.5) ng/mL per mg, the C0/Daily dose [1, 3] was 1.6 (1.3, 2.3) ng/mL per mg/day and the C0/D [1, 4] was 2.2 (1.3, 2.8) ng/mL per mg. For the same compound, the C0/Daily dose [1, 4] was 1.1 (0.6, 1.4) ng/mL per mg/day, the C0/D [1, 5] was 3.8 (2.7, 7.2)^c ng/mL per mg and the C0/Daily dose [1, 5] was 1.9 (1.3, 3.6)^c ng/mL per mg/day. The C0/D [1, 6] was 3.8 (2.0, 5.0) ng/mL per mg, the C0/Daily dose [1, 6] was 1.9 (1.0, 2.5) ng/mL per mg/day and the C0/D [1, 7] was 3.7 (2.4, 4.5)^c ng/mL per mg. For the same compound, the C0/Daily dose [1, 7] was 1.8 (1.2, 2.2)^c ng/mL per mg/day, the C0/D [1, 8] was 1.8 (1.1, 2.0) ng/mL per mg and the C0/Daily dose [1, 8] was 0.9 (0.6, 1.0) ng/mL per mg/day. The C0/D [1, 9] was 6.4 (4.1, 8.8)^c ng/mL per mg, the C0/Daily dose [1, 9] was 3.2 (2.0, 4.4)^c ng/mL per mg/day and the C0/D [1, 10] was 3.4 (2.7, 5.8)^c ng/mL per mg. For the same compound, the C0/Daily dose [1, 10] was 1.7 (1.4, 2.9)^c ng/mL per mg/day, the AUC/D [1, 11] was 44.9 (37.1, 65.3) ng*h/mL per mg and the C0/D [1, 11] was 2.5 (1.8, 3.7) ng/mL per mg. The “C0, range” value ([1]; day 7, all 40 KTRs, range) was 5.0 to 13.2 ng/mL, the “AUC/D (dose-adjusted area under the 12-h curve)” value ([1]; day 7 post-transplantation, CYP3A5 expressers, diltiazem 30 mg every 12 h (EXdtz, n = 11), median (IQR)) was 43.6 (37.0, 50.5) ng*h/mL per mg and the “AUC/D (dose-adjusted area under the 12-h curve)” value ([1]; day 7 post-transplantation, CYP3A5 expressers, diltiazem 30 mg every 12 h (EXdtz, n = 11), median (IQR), listed as tacrolimus) was 43.6 ng*h/mL per mg. The C0/D [1, 12] was 1.9 (1.8, 3.2) ng/mL per mg, the C0/Daily dose [1, 12] was 1.0 (0.9, 1.6) ng/mL per mg/day and the “AUC/D (dose-adjusted area under the 12-h curve)” value ([1]; day 7 post-transplantation, CYP3A5 expressers, placebo (EXplb, n = 12), median (IQR)) was 34.9 (31.6, 38.5) ng*h/mL per mg. For the same compound, the “AUC/D (dose-adjusted area under the 12-h curve)” value ([1]; day 7 post-transplantation, CYP3A5 expressers, placebo (EXplb, n = 12), median (IQR), listed as tacrolimus) was 34.9 ng*h/mL per mg, the C0/D [1, 13] was 2.0 (1.4, 2.5) ng/mL per mg and the C0/Daily dose [1, 13] was 1.0 (0.7, 1.2) ng/mL per mg/day. For the same compound, the “AUC/D (dose-adjusted area under the 12-h curve)” value ([1]; day 7 post-transplantation, CYP3A5 non-expressers, diltiazem 30 mg every 12 h (NEdtz, n = 9), median (IQR)) was 71.1 (54.9, 100.7)^c ng*h/mL per mg, the “AUC/D (dose-adjusted area under the 12-h curve)” value ([1]; day 7 post-transplantation, CYP3A5 non-expressers, diltiazem 30 mg every 12 h (NEdtz, n = 9), median (IQR), listed as tacrolimus) was 71.1 ng*h/mL per mg and the C0/D [1, 14] was 4.2 (2.8, 6.0)^c ng/mL per mg. For the same compound, the C0/Daily dose [1, 14] was 2.1 (1.4, 3.0)^c ng/mL per mg/day, the “AUC/D (dose-adjusted area under the 12-h curve)” value ([1]; day 7 post-transplantation, CYP3A5 non-expressers, placebo (NEplb, n = 8), median (IQR)) was 49.4 (43.0, 62.9)^c ng*h/mL per mg and the “AUC/D (dose-adjusted area under the 12-h curve)” value ([1]; day 7 post-transplantation, CYP3A5 non-expressers, placebo (NEplb, n = 8), median (IQR), listed as tacrolimus) was 49.4 ng*h/mL per mg. For the same compound, the C0/D [1, 15] was 2.8 (2.5, 3.4) ng/mL per mg, the C0/Daily dose [1, 15] was 1.4 (1.2, 1.7) ng/mL per mg/day and the C0 ([1]; 30 mg, day 1 post-transplantation, CYP3A5 expressers, diltiazem 30 mg every 12 h (n = 11), mean ± SD) was 10.9 ± 3.7 ng/mL. For the same compound, the C0 ([1]; 30 mg, day 1 post-transplantation, CYP3A5 non-expressers, diltiazem 30 mg every 12 h (n = 9), mean ± SD) was 13.1 ± 7.4 ng/mL, the C0 ([1]; 30 mg, day 3 post-transplantation, CYP3A5 expressers, diltiazem 30 mg every 12 h (n = 11), median (IQR)) was 9.3 ng/mL and the C0 ([1]; 30 mg, day 3 post-transplantation, CYP3A5 non-expressers, diltiazem 30 mg every 12 h (n = 9), median (IQR)) was 11.9 ng/mL. The C0 ([1]; 30 mg, day 7 post-transplantation, CYP3A5 expressers, diltiazem 30 mg every 12 h (n = 11), mean ± SD) was 7.4 ± 2.1 ng/mL, the AUC ([1]; 30 mg, day 7 post-transplantation, CYP3A5 expressers, diltiazem 30 mg every 12 h (n = 11), mean ± SD, read-out: AUC (area under the concentration over 12-h curve)) was 138 ± 29.6 ng·h/mL and the C0 ([1]; 30 mg, day 7 post-transplantation, CYP3A5 non-expressers, diltiazem 30 mg every 12 h (n = 9), mean ± SD) was 8.4 ± 1.8 ng/mL. For the same compound, the AUC ([1]; 30 mg, day 7 post-transplantation, CYP3A5 non-expressers, diltiazem 30 mg every 12 h (n = 9), mean ± SD, read-out: AUC (area under the concentration over 12-h curve)) was 148 ± 25.5 ng·h/mL, the C0 ([1]; day 1 post-transplantation, CYP3A5 expressers, placebo (n = 12), mean ± SD) was 7 ± 3.2 ng/mL and the C0 ([1]; day 1 post-transplantation, CYP3A5 non-expressers, placebo (n = 8), mean ± SD) was 12.6 ± 7.2 ng/mL. For the same compound, the C0 [1, 8] was 6.2 ng/mL, the C0 [1, 10] was 9.4 ng/mL and the C0 ([1]; day 7, all 40 KTRs, mean ± SD) was 8.4 ± 2.1 ng/mL. For the same compound, the AUC ([1]; day 7, all 40 KTRs, mean ± SD, read-out: AUC) was 154 ± 33.2 ng·h/mL, the AUC ([1]; day 7, all 40 KTRs, range, read-out: AUC, range) was 96.9 to 233 ng·h/mL and the C0 ([1]; day 7 post-transplantation, CYP3A5 expressers, placebo (n = 12), mean ± SD) was 9.2 ± 1.6 ng/mL. It also gave an AUC ([1]; day 7 post-transplantation, CYP3A5 expressers, placebo (n = 12), mean ± SD, read-out: AUC (area under the concentration over 12-h curve)) of 169 ± 32.2 ng·h/mL, a C0 ([1]; day 7 post-transplantation, CYP3A5 non-expressers, placebo (n = 8), mean ± SD) of 8.6 ± 2.5 ng/mL and an AUC ([1]; day 7 post-transplantation, CYP3A5 non-expressers, placebo (n = 8), mean ± SD, read-out: AUC (area under the concentration over 12-h curve)) of 159 ± 40.7 ng·h/mL. The Tremor ([2]; during 3 months after transplantation, 40 KTRs) was “No study patients reported tremor”, the “Biopsy-proven acute rejection (BPAR)” value ([2]; during 3 months after transplantation, 40 KTRs on tacrolimus-based regimen, one in EXdtz, one in NEplb) was 5% and the Post-transplant diabetes mellitus ([2]; during 3 months after transplantation, 40 KTRs, one in EXplb, one in EXdtz) was 5%. For the same compound, the “DGF, suspected rejection, or BPAR” value ([2]; first week post-KT, 40 KTRs on tacrolimus-based regimen) was “None”.
